Laboratory results taken from patent US9150569B2, “Nitrogen-containing heterocyclic compound having inhibitory effect on production of kynurenine” (KYOWA HAKKO KIRIN CO., LTD., priority 2010, dated 2015).

Test system: production of kynurenine in KATO-III cells
Assay: Inhibitory activity on the production of kynurenine (IFN-γ-treated KATO-III cells, kynurenine in the culture medium quantified by absorbance at 480 nm)
Assay type: cell-based
Settings: test compound at 10 μmol/L, human gastric cancer cell line KATO-III, 96 hours, read-out: inhibition rate (production of kynurenine)
Experimental: This assay was performed by a modification of the method described in J. Biol. Chem., vol. 263, pp. 2041-2048 (1988). For culture of the human gastric cancer cell line KATO-III, RPMI 1640 (GIBCO, 11875) supplemented with 10 volt FBS (GIBCO, 10091-148, lot. 665285) was used. One μL of a test substance in a DMSO solution was diluted with 199 μL of the culture medium and placed in wells of a 384-well plate (10 μL/well). Next, IFN-γ (Sigma, 1-3265) was added to the culture medium to a concentration of 31.25 ng/mL, and KATO-III cells were suspended at 50,000 cells/mL in the culture medium. Forty μL of the suspension was added to each well (2,000 cells/well) and incubated under a 5% CO2 atmosphere at 37° C. for 96 hours. The final concentration of DMSO was limited to 0.1 volt or less so that DMSO itself may not affect the kynurenine concentration measured by this assay. After the incubation, 10 μL of a 30 w/vt aqueous trichloroacetic acid solution was added to each well, and incubation was performed at 65° C. for 30 minutes. The plate was centrifuged at 2,500×g for 5 minutes and 15μL of the supernatant in each well was transferred into another 384-well plate. To the transferred supernatant, 15 μL of a 2 w/vt solution of p-dimethylaminobenzaldehyde in acetic acid was added, incubation was performed at 65° C. for 20 minutes and the absorbance was measured at 480 nm.
Sample: the absorbance value of the well to which a DMSO solution containing a test substance was added and in which the cells were treated with IFN-γ.
Blank: the absorbance value of the well to which DMSO not containing a test substance was added and in which the cells were treated with IFN-γ.
Control: the absorbance value of the well to which DMSO not containing a test substance was added and in which the cells were not treated with IFN-γ.
In this assay, expression of IDO in KATO-III cells is induced by IFN-γ treatment and kynurenine in the culture medium is quantified. The kynurenine concentration in a culture medium is known to increase in proportion to the enzymatic activity of intracellular IDO (for example, J. Biol. Chem., vol. 263, pp. 2041-2048 ([…])). […] The production of kynurenine is known to be inhibited by IDO inhibitors (for example, J. Clin. Invest., vol. 117, No. 5, pp. 1147-1154 […]), and thus it is speculated that Compounds (I) also have an inhibitory effect on IDO.

Row | Structure (SMILES) | inhibition at 10 µM [%]
1 | CCCCC(Oc1nc2ccccc2nc1NS(=O)(=O)CCC)c1cccnc1 (stereo not drawn) [Compound 11, N-(3-(1-(pyridin-3-yl)pentyloxy)quinoxalin-2-yl)propane-1-sulfonamide] | ≥ 80
2 | CCCS(=O)(=O)Nc1nc2ccccc2nc1OC(c1ccc2nccn2c1)C(F)(F)F (stereo not drawn) [Compound 27, N-(3-(2,2,2-trifluoro-1-(imidazo[1,2-a]pyridin-6-yl)ethoxy)quinoxalin-2-yl)propane-1-sulfonamide] | ≥ 80
3 | CCCS(=O)(=O)Nc1nc2ccccc2nc1OC(c1cccnc1)C1(C)CC1 (stereo not drawn) [Compound 13, N-(3-((1-methylcyclopropyl)(pyridin-3-yl)methoxy)quinoxalin-2-yl)propane-1-sulfonamide] | ≥ 80
4 | CCCCS(=O)(=O)Nc1nc2ccccc2nc1OC(c1ccncc1)C(F)(F)F (stereo not drawn) [Compound 46, N-(3-(2,2,2-trifluoro-1-(pyridin-4-yl)ethoxy)quinoxalin-2-yl)butane-1-sulfonamide] | ≥ 80
5 | COCCS(=O)(=O)Nc1nc2ccccc2nc1OC(c1ccc(-c2cnn(C)n2)nc1)C(F)(F)F (stereo not drawn) [Compound 68A, 2-methoxy-N-(3-(2,2,2-trifluoro-1-(6-(2-methyl-2H-1,2,3-triazol-4-yl)pyridin-3-yl)ethoxy)quinoxalin-2-yl)ethanesulfonamide] | ≥ 80
6 | CCCCS(=O)(=O)Nc1nc2ccccc2nc1OC(c1ccnc(C#N)c1)C(F)(F)F (stereo not drawn) [Compound 52, N-(3-(1-(2-cyanopyridin-4-yl)-2,2,2-trifluoroethoxy)quinoxalin-2-yl)butane-1-sulfonamide] | ≥ 80
7 | COCCS(=O)(=O)Nc1nc2ccccc2nc1OC(c1ccc(-c2cnco2)nc1)C(F)(F)F (stereo not drawn) [Compound 73, 2-methoxy-N-(3-(2,2,2-trifluoro-1-(6-(oxazol-5-yl)pyridin-3-yl)ethoxy)quinoxalin-2-yl)ethanesulfonamide] | ≥ 80
8 | CCCS(=O)(=O)Nc1nc2ccccc2nc1OC(c1ccc(S(C)(=O)=O)cc1)C(F)(F)F (stereo not drawn) [Compound 25, N-(3-(2,2,2-trifluoro-1-(4-(methylsulfonyl)phenyl)ethoxy)quinoxalin-2-yl)propane-1-sulfonamide] | ≥ 80
9 | CCCCS(=O)(=O)Nc1nc2ccccc2nc1OC(c1ccc([S+](C)[O-])nc1)C(F)(F)F (stereo not drawn) [Compound 41, N-(3-(2,2,2-trifluoro-1-(6-(methylsulfinyl)pyridin-3-yl)ethoxy)quinoxalin-2-yl)butane-1-sulfonamide] | ≥ 80
10 | CCCC(Oc1nc2ccccc2nc1NS(=O)(=O)CCC)c1ccc[n+]([O-])c1 (stereo not drawn) [Compound 22, 3-(1-(3-(propylsulfonamido)quinoxalin-2-yloxy)butyl)pyridine 1-oxide] | ≥ 80
11 | CCCS(=O)(=O)Nc1nc2ccccc2nc1OC(c1ccnc(-n2ccnc2)c1)C(F)(F)F (stereo not drawn) [Compound 54, N-(3-(1-(2-(1H-imidazol-1-yl)pyridin-4-yl)-2,2,2-trifluoroethoxy)quinoxalin-2-yl)propane-1-sulfonamide] | ≥ 80
12 | O=S(=O)(CC1CC1)Nc1nc2ccccc2nc1OC(c1ccncc1)C(F)(F)F (stereo not drawn) [Compound 50, 1-cyclopropyl-N-(3-(2,2,2-trifluoro-1-(pyridin-4-yl)ethoxy)quinoxalin-2-yl)methanesulfonamide] | ≥ 80
13 | CCCS(=O)(=O)Nc1nc2cc(I)ccc2nc1OC(c1cccnc1)C(F)(F)F (stereo not drawn) [Compound 77, N-(7-iodo-3-(2,2,2-trifluoro-1-(pyridin-3-yl)ethoxy)quinoxalin-2-yl)propane-1-sulfonamide] | ≥ 80
14 | CCCS(=O)(=O)Nc1nc2ccccc2nc1OC(c1cccnc1)C(C)(C)F (stereo not drawn) [Compound 7, N-(3-(2-fluoro-2-methyl-1-(pyridin-3-yl)propoxy)quinoxalin-2-yl)propane-1-sulfonamide] | ≥ 80
15 | COCCS(=O)(=O)Nc1nc2ccccc2nc1OC(c1ccc(-c2ccnn2C)nc1)C(F)(F)F (stereo not drawn) [Compound 67, 2-methoxy-N-(3-(2,2,2-trifluoro-1-(6-(1-methyl-1H-pyrazol-5-yl)pyridin-3-yl)ethoxy)quinoxalin-2-yl)ethanesulfonamide] | ≥ 80
16 | CCCS(=O)(=O)Nc1nc2ccccc2nc1OC(CC)c1ccc[n+]([O-])c1 (stereo not drawn) [Compound 16, 3-(1-(3-(propylsulfonamido)quinoxalin-2-yloxy)propyl)pyridine 1-oxide] | ≥ 80
17 | CCCS(=O)(=O)Nc1nc2ccccc2nc1OC(c1ccccc1)c1ccc[n+]([O-])c1 (stereo not drawn) [Compound 24, 3-(phenyl(3-(propylsulfonamido)quinoxalin-2-yloxy)methyl)pyridine 1-oxide] | ≥ 80
18 | CCCS(=O)(=O)Nc1nc2cc(C#N)ccc2nc1OC(c1cccnc1)C(F)(F)F (stereo not drawn) [Compound 78, N-(7-cyano-3-(2,2,2-trifluoro-1-(pyridin-3-yl)ethoxy)quinoxalin-2-yl)propane-1-sulfonamide] | ≥ 80
19 | CCCS(=O)(=O)Nc1nc2ccccc2nc1OC(c1ccc2c(c1)OCCO2)C(F)(F)F (stereo not drawn) [Compound 48, N-(3-(1-(2,3-dihydrobenzo[b][1,4]dioxin-6-yl)-2,2,2-trifluoroethoxy)quinoxalin-2-yl)propane-1-sulfonamide] | ≥ 80
20 | CCCCS(=O)(=O)Nc1nc2ccccc2nc1OC(c1ccc(-c2cnn(C)c2)nc1)C(F)(F)F (stereo not drawn) [Compound 33, N-(3-(2,2,2-trifluoro-1-(6-(1-methyl-1H-pyrazol-4-yl)pyridin-3-yl)ethoxy)quinoxalin-2-yl)butane-1-sulfonamide] | ≥ 80
21 | CCCS(=O)(=O)Nc1nc2ccccc2nc1OC(c1ccc(CO)nc1)C(F)(F)F (stereo not drawn) [Compound 31, N-(3-(2,2,2-trifluoro-1-(6-(hydroxymethyl)pyridin-3-yl)ethoxy)quinoxalin-2-yl)propane-1-sulfonamide] | ≥ 80
22 | CCCS(=O)(=O)Nc1nc2ccccc2nc1OC(c1ccc(-c2cnco2)nc1)C(F)(F)F (stereo not drawn) [Compound 65, N-(3-(2,2,2-trifluoro-1-(6-(oxazol-5-yl)pyridin-3-yl)ethoxy)quinoxalin-2-yl)propane-1-sulfonamide] | ≥ 80
23 | O=S(=O)(CC1CC1)Nc1nc2ccccc2nc1OC(c1ccc2nccn2c1)C(F)(F)F (stereo not drawn) [Compound 30, 1-cyclopropyl-N-(3-(2,2,2-trifluoro-1-(imidazo[1,2-a]pyridin-6-yl)ethoxy)quinoxalin-2-yl)methanesulfonamide] | ≥ 80
24 | COCCS(=O)(=O)Nc1nc2ccccc2nc1OC(c1cnc(C(C)=O)s1)C(F)(F)F (stereo not drawn) [Compound 74, N-(3-(1-(2-acetylthiazol-5-yl)-2,2,2-trifluoroethoxy)quinoxalin-2-yl)-2-methoxyethanesulfonamide] | ≥ 80
25 | CCCS(=O)(=O)Nc1nc2ccccc2nc1OC(c1ccnc(C#N)c1)C(F)(F)F (stereo not drawn) [Compound 44, N-(3-(1-(2-cyanopyridin-4-yl)-2,2,2-trifluoroethoxy)quinoxalin-2-yl)propane-1-sulfonamide] | ≥ 80
26 | CCCS(=O)(=O)Nc1nc2ccccc2nc1OC(c1cnc(C(C)=O)s1)C(F)(F)F (stereo not drawn) [Compound 71, N-(3-(1-(2-acetylthiazol-5-yl)-2,2,2-trifluoroethoxy)quinoxalin-2-yl)propane-1-sulfonamide] | ≥ 80
27 | CCCS(=O)(=O)Nc1nc2ccccc2nc1OC(CC)c1cccnc1 (stereo not drawn) [Compound 15, N-(3-(1-(pyridin-3-yl)propoxy)quinoxalin-2-yl)propane-1-sulfonamide] | ≥ 80
